How the values were obtained:
[1] = target: T1, Erbin-PDZ-FN affinity clamp complex (Homo sapiens, UniProt Q96RT1); assay: Induction of the TVMV-based allosteric receptor by PDZ ligands of different affinity; assay type: biochemical; details: FIG. 11C
T1 construct: made in house; host or cells: E. coli BL21(DE3)-RIL
Method: The maximum induction ratio of TVMV-based allosteric receptors (500 nM) was measured in a similar fashion in the presence or absence of the PDZ ligand peptide-1 ([…]) at a final concentration of 10 μM in protease assay buffer consisting of 50 mM Tris-HCl, 1 M NaCl, 1 mM DTT and 0.5 mM EDTA, pH 8.0. The reaction was generally initiated following the addition of TVMV substrate peptide (Table 1) to a final concentration of 10 μM.
A set of different allosterically regulated proteases was constructed by varying the composition of the three different linkers connecting TVMV to the Erbin-PDZ domain (Linker 1), the Erbin-PDZ domain to the FN3 domain (Linker 2) and the FN3 domain to the AI-domain (Linker 3). […] The largest modulation was effected by progressively shortening and lengthening linker L1.

ePDZ-b1 = details: cited from earlier work
Sequence of ePDZ-b1 (as listed by the source): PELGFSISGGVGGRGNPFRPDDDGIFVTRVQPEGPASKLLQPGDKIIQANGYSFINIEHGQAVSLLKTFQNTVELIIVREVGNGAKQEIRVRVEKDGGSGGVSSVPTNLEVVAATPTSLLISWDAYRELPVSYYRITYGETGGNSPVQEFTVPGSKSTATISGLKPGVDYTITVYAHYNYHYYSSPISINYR

T1 sequence (Q96RT1 with tags, fused parts or gaps limits assumed): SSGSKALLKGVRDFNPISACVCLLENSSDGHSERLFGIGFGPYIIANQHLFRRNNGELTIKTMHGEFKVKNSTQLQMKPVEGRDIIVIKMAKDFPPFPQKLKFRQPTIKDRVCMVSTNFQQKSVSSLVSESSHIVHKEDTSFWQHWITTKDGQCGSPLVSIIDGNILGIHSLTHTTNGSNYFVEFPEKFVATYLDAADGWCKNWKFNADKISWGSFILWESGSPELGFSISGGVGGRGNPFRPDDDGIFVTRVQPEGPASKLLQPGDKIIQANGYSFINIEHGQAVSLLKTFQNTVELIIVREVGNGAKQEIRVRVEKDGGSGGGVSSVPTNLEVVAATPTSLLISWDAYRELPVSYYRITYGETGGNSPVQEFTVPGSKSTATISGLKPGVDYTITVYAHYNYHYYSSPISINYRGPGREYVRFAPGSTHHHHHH

| Sequence | induction of activity compared to the higher affinity PDZ peptide ligand-1 [1] | Kd (ePDZ-b1) [nM] |
| --- | --- | --- |
| PQPVDSWV [PDZ-Ligand 2] | approximately 10 fold lower | ~5 |
| RGSIDTWV [PDZ-Ligand 1] | – | ~0.625 |

— patent publication US9791436B2, “Protease-based biosensor” (priority 2012, dated 2017)
